In ChEMBL document CHEMBL1795291, “Computer- and structure-based lead design for epigenetic targets” (Bioorg Med Chem, 2011):

Legend:
[1] = biological target: T1, NAD-dependent protein deacetylase sirtuin-2 (Homo sapiens, UniProt Q8IXJ6); assay: Inhibition of human Sirt2
T1 sequence (Q8IXJ6 whole entry): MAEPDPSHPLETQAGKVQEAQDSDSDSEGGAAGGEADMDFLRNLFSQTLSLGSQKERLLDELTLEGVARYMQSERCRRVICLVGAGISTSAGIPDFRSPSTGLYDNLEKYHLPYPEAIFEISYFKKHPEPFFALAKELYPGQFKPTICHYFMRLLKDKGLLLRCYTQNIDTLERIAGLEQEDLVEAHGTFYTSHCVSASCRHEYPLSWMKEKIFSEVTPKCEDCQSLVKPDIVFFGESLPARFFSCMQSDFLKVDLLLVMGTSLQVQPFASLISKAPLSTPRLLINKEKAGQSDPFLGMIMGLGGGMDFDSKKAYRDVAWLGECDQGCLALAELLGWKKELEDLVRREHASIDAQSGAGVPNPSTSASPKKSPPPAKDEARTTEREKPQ

[2] = Inhibition of HDAC by fluorescence assay
[3] = biological target: T2, Histone-lysine N-methyltransferase EHMT2 (Homo sapiens, UniProt Q96KQ7); assay: Inhibition of lysine methyltransferase G9a
T2 sequence (Q96KQ7 whole entry): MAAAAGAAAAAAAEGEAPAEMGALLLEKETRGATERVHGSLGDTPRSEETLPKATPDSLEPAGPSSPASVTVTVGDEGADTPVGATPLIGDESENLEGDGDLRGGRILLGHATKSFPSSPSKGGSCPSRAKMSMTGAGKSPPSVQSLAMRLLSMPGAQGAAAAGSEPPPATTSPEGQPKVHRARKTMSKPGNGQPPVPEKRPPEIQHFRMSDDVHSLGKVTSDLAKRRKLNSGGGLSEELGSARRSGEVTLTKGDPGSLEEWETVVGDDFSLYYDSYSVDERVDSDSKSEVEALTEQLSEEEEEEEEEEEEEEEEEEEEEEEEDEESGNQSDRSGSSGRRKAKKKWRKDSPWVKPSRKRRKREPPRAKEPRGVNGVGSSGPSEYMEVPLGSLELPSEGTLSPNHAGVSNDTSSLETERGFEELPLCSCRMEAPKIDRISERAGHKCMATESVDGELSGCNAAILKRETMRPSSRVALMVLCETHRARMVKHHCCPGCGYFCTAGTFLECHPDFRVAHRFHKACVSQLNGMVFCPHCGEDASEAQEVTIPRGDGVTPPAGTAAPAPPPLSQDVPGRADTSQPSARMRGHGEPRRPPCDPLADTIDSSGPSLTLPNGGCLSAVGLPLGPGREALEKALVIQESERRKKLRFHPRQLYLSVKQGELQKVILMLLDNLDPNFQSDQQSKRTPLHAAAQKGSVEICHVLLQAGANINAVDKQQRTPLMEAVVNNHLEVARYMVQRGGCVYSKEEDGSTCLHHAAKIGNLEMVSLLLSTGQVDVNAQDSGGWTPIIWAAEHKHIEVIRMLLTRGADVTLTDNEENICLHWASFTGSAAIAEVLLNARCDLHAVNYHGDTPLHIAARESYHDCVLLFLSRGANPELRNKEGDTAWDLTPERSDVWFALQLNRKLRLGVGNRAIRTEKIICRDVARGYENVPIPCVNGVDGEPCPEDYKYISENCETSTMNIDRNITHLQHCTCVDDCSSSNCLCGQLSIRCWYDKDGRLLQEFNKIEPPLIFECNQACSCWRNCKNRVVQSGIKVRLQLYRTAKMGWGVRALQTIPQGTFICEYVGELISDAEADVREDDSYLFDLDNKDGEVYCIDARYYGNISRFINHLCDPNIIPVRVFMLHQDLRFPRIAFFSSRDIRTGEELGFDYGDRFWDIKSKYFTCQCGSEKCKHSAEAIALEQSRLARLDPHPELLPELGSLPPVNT

`O=C1NC(=S)NC(=O)C1=Cc1ccc(-c2ccccc2)cc1` gave an IC50 [1] of 8.7 µM.
`CCc1nnc(NS(=O)(=O)c2ccc(N/C=C3\Sc4ccccc4C3=O)cc2)s1` gave an IC50 [2] of 4.3 µM.
For `COc1ccc(C(=O)Oc2ccc(CCn3c(NC(=O)c4ccc(C(F)(F)F)cc4)nc4cc(C(=O)O)ccc43)cc2)cc1`, the IC50 [3] was 0.106 µM.
